{
  "source": "ChEMBL document CHEMBL1158981",
  "about": "“An Unusual Sulfur-Containing Diketopiperazine from the Bermudian Sponge Tedania ignis” (J Nat Prod, 1991)",
  "tested_on": "Artemia",
  "test": "Toxicity against brine shrimp",
  "type": "organism-based",
  "settings": "in vivo",
  "data": [
    {"compound": "O=C1[C@@H]2CCCN2C(=O)[C@H]2CSCN12", "values": [
      {"measurement": "Activity", "value": "Non-toxic"}
    ]}
  ]
}
